# Laboratory results published in EP1785417A2, “Novel non-psychotropic cannabinoids” (priority 2000, dated 2001).
# Like-named read-outs stand apart in the source and are kept apart here.
# Experiments:
# [1] = target: NMDA receptor; test: Radioligand binding: displacement of [3H]MK-801 from rat forebrain membranes
# Excerpt: (§1) Evaluation of the therapeutic effects of the novel PRS-211 compounds has now been carried out in a series of experimental systems to support the utility of these drugs as neuroprotectants, anti-inflammatory agents and anti-oxidative agents. These effects have been evaluated both in vitro and in vivo, and have been corroborated utilizing the following systems: • (a) Binding to the NMDA receptor linked channel: Non competitive antagonists of NMDA, the primary example of which is the compound MK-801, bind to a site within the NMDA receptor channel thus preventing the activation of the receptor-channel complex and the consequent neurotoxicity. The ability of various compounds to compete with the binding of tritium labeled MK-801 to brain membranes is considered a measure of their potency as NMDA non-competitive antagonists. • (b) Inhibition of prostaglandin production: The inhibitory effect of the new derivatives of Dexanabinol on prostaglandin synthesis is evaluated in macrophage cell cultures following LPS exposure to induce the inflammatory response. These assays are an indication of the anti-inflammatory activity of the individual analogs. • (c) Inhibition of Tumor Necrosis Factor Alpha: Specific aspects of the inflammatory response cascade are mediated by the cytokine TNFα. Inhibition of TNFα production and/or inhibition of TNFα release by the new analogs are assayed in macrophage cell cultures activated with LPS. This serves as another indication of the general anti-inflammatory potential of the novel compounds. • (d) Nitric Oxide Assay: As one aspect of the anti-oxidative potential of the novel analogs they were tested for their ability to inhibit the enzyme nitric oxide synthase (NOS). This assay can also serve as another indication of the anti-inflammatory cascade, as well as the anti-oxidative mechanisms. • (e) Ear Edema model: The anti-inflammatory activity of the new analogs is screened using an ear edema model in mice. This test system utilizes Croton oil or Arachidonic acid as inflammation inducers. The ability of the test compounds to prevent or diminish the inflammatory response to these stimulants is indicative of their systemic anti-inflammatory capability. • (f) Improved clinical outcome after closed head injury in rats: Severe head injury is associated with high mortality and severe neurological impairment. Animals subjected to head trauma in a controlled fashion serve as models in which to test drugs of therapeutic potential. Test compounds can be evaluated both for improved clinical outcome and for reduction of edema induced by closed head injury. The ability of compounds to reduce the severity of neurological symptoms and to reduce brain edema is considered a measure of their potency in reducing brain damage. • (g) Transient Middle cerebral artery occlusion (MCAo): The middle cerebral artery is the cerebral blood vessel most susceptible to stroke in humans. In animals, coagulation, permanent ligation or permanent placement of an occluding thread in the artery produces a permanent focal stroke affecting the MCA territory. Transient ligation or occlusion results in transient focal stroke. Both transient and permanent focal strokes result in varying degrees of edema and infarction in the affected brain regions. The ability of compounds to reduce the volumes of edema and infarction is considered a measure of their potential as anti-stroke treatment. • (h) Optic Nerve Crush: Application of mechanical pressure to the rat optical nerve results in crush injury of the axons, which is accompanied by immediate changes in oxidative metabolism and delayed axonal death and blindness. […]
# [2] = tested on: PGE2; test: Inhibition of prostaglandin synthesis (PGE2) in LPS-stimulated macrophage cell cultures; format: cell-based; details: LPS-stimulated macrophages
# Excerpt: as §1
# [3] = tested on: TNFα; test: Inhibition of TNFα in LPS-stimulated macrophage cell cultures (ELISA); format: cell-based; details: LPS-stimulated macrophages
# Excerpt: as §1
# [4] = tested on: Nitric Oxide Synthase (NOS); test: Inhibition of nitric oxide synthase (nitrite fluorimetric assay, LPS-stimulated macrophage cultures); format: cell-based; details: LPS-stimulated macrophages
# Excerpt: as §1
# [5] = tested on: ear edema model in mice; test: Ear edema model; format: in vivo; details: Mus musculus, Croton oil (CO) as inducer, IP
# Excerpt: as §1
# [6] = tested on: transient middle cerebral artery occlusion in rats; test: Transient middle cerebral artery occlusion (MCAo), infarct size evaluation; format: in vivo
# Excerpt: Experimental design. The design was a randomized one, performed in a masked fashion as to whether drug or vehicle was being given, and an attempt was made to generate approximately equal numbers of drug- and vehicle-treated animals.
# • a. Male rats (8 /treatment group) 320-380 gr. (Harlan Israel). • b. Halothane (Rhone Poulenc France) • c. Pentobarbitone (Pental Veterinary, CTS Israel). • d. Poly - L - Lysine (Sigma, USA). • e. Silk suture material 3-0 and 4-0. • f. Nylon (Polyamid) suture material 3-0. Four cm pieces were cut and positioned in a solution of 1% Poly - L - Lysine for 1 minute and dried in an oven (60 ° C) for 60 minutes. The tip of each piece was rounded under a flame. • g. Saline (Teva Medical). • h. Blank cremophor ethanol cosolvent (Pharmos). • i. Dexanabinol in cremophor ethanol cosolvent 50 mg/ml. (Both Dexanabinol and its vehicle were diluted in saline prior to drug administration. • j. Analogs PRS-211,092, PRS-211,095, PRS-211,128 PRS-211,132 and PRS-211,220 in cremophor ethanol cosolvent, 50 mg/ml. • k. The analogs were diluted in saline prior to drug administration.
# • a. Surgical details of the MCAo method used for testing dexanabinol analogs, are presented in Belayev, et al., (Belayev, Busto, Weizhao, and Ginsberg, Stroke 26:2313-2319, 1995) which is incorporated herein in its entirety by reference. • b. Two hours after the start of MCAO, the animals were reanesthetized with halothane, the neck wound was re-opened and the nylon thread pulled out of the Internal carotid artery (ICA). The skin wound was then closed with 3-0 silk suture material and the animals allowed to recover from the anesthesia. • c. Three sets of animals were tested. In the first test immediately (2+0 hours) before thread removal the animals were injected IV with either analogs PRS-211,095, PRS-211,128, PRS-211,132, or Dexanabinol (PRS-211,007) each at a dosage of 5 mg/kg. One group of animals was treated with 5ml/kg vehicle alone. In another group, the animals subjected to "sham" operation, the suture was passed into the ICA, as described above, but immediately withdrawn. In the second set dexanabinol, PRS-211,092, PRS-211,095 and PRS-211,220 were used, at 2+0 hours. In the third set dexanabinol, PRS-211,092, PRS-211,095 and PRS-211,220 were administered 1 hour after thread removal (2+1 hours). Laser Doppler Flow (LDF) determined the success of MCAo - a drop of more then 50% in cerebral blood flow was considered as a sign of successful MCAo. Although LDF was a helpful corroborative sign, clinical outcome remained the final inclusion/exclusion criterion, since, with the exception of the PRS-211,220 staircase study, LDF was introduced only after initiation of the study.
# A detailed investigation of neurological performance was carried out on the first, third and the 7th day after the MCAo. Two parameters were examined: posture and the flexion reflex (based on Nokon and Chuang, NeuroReport 9, 1998: 2081-2084). Animals were scored according to their performance:
# One week after the ischemic insult, animals were euthanized with pentobarbitone 100 mg/kg IP. The animals were perfused through the heart with heparinized 4% formaldehyde solution in PBS (pH 7.4). Brains were then removed, and kept in the same solution before preparation for histological evaluation of the brain infarct volume.
# [7] = tested on: transient MCAo in rats; test: Transient MCAo evaluated by the staircase test; format: in vivo
# Description: The materials for this procedure are identical to those from Physiological Example 5, except for the different concentrations of PRS-211,095. The procedural differences are as follows: • Male Sprague Dawley rats, 230-270 gr (Harlan, Israel) were used. The following compounds and their respective concentrations were tested: • Dexanabinol and analogs PRS-211,095 and PRS-211,220 in PEG ethanol cosolvent 50 mg/ml. Dexanabinol, the analogs and their vehicle were diluted in Intralipid® 20% (Pharmacia) prior to drug administration.
# The procedure is essentially as described in Montoya et al. (Montoya, Campbell-Hope, Pemberton and Dunnet, J. Neurosci. Meth. 36:219-228, 1991) Animals were kept under mild food deprivation for 3-5 days, receiving 15-gr. food once a day (between 16:00 and 17:00) and free access to water. Animals were trained prior to the test for 3-5 days according to the protocol of Sharkey et. al. (Sharkey, Crawford, Butcher and Martson, Stroke 27:2282-2286, 1996).
# In brief, the staircase box contains two rows of seven stairs in each. Two 45 mg food pellets were placed on each step. Animals were placed in the box for 15 minutes sessions. At the end of the session the number of eaten (grasped) and displaced pellets was counted and recorded. Animals were tested twice a day, 4 hours apart. The first session was performed between 8-9 AM and second between 12-13 PM. The animals were trained until they grasped (ate) at least 8 pellets from each set of stairs for two consecutive sessions. Up to one week after the end of the successful training session the animals underwent transient MCAo. Transient MCAo was performed in essentially the same manner as described in Physiological example 5 with the following modification at step i: • Two minutes prior to thread removal rats were re-anesthetized and administered IV with Dexanabinol 5mg/kg, analogs PRS-211,220 or PRS-211,095 at 0.5, 2.5, 5 or 10 mg/kg or vehicle 5 ml/kg. One additional group was sham-treated.
# (§2) Animals were allowed to recover from the surgery for five days. The mild food deprivation was re-employed during the days following the ischemic insult. They were tested in the staircase box using the above method for 9-12 days. Animals were weighed twice a week during this period.
# At the end of the evaluation period, animals were euthanized with pentobarbitone 100 mg/kg IP. The animals were perfused through the heart with heparinized 4% formaldehyde solution in PBS (pH 7.4). Brains were then removed, and kept in the same solution for at least 24h. Then the brains - from the rostral side of the cortex to the cerebellum- were sunk in 30% sucrose in PBS, cryosectioned (20 µm), dried and stained with thionin for histological evaluation of the brain infarct volume. Eight sections at the levels of: 3.3;+2.8;+1.8; +0.8; -0.4;-1.4; -2.2; and -3.4 from Bregma were measured (Swanson, Rat Brain Atlas, 1992). Sections were captured by a CCD camera (V-tech MP-470) and image analyzed (Scion image 1.62A). Infarct size was determined from the series of the 8 sections by either calculation of the infarct volume (mm3) by summing the series of mean lesion areas of two adjacent sections multiplied by the distance between them or calculation of the mean infarct size as percentage of the contralateral hemisphere size; calculation of the mean of the surviving ipsilateral side as percentage of the contralateral hemisphere size; calculation of the mean ipsilateral side ventricle as percentage of the contralateral hemisphere ventricle.
# • a. The infarct size was compared using ANOVA (analysis of variance) followed by Duncan's post hoc test. • b. […]
# [8] = Body weight gain during staircase testing after transient MCAo; format: in vivo, rats; details: compared to base line
# Description: as §2
# Animals were kept under mild food deprivation during the staircase testing (except during weekends). Under these conditions, the following results were observed: • Sham and PRS-211,095 10 mg/kg treated rats gained the maximal body weight (15 and 17% respectively compared to base line). […] These differences were not statistically different.
# [9] = [3H]MK-801 binding, text to Figure 2, read-out: mean IC50
# [10] = displacement of [3H]MK-801, rat forebrain membranes, read-out: NMDA BINDING IC50
smiles,measurement,setting,value
"CCCCCCC(C)(C)c1cc(O)c2c(c1)OC(C)(C)[C@H]1CC=C(CN3CCOCC3)C[C@H]21 [211,132-000]",IC50,[1]; [9],4.5 µM
same,IC50,[1]; [10],4.5 µM
same,inhibition at 10 µM,[2],61%
same,inhibition at 10 µM,[3],21%
same,inhibition at 10 µM,[4],40%
same,ED50,[5],70 µmol/kg
same,Mortality rate,[6]; 5 mg/kg IV at 2+0 hours,around 25%
"CCCCCCC(C)(C)c1cc(O)c2c(c1)OC(C)(C)[C@H]1CC=C(CN3CCN=C3SC)C[C@H]21 [211,204-000]",IC50,[1]; [10],10 µM
same,inhibition at 10 µM,[2],83%
same,inhibition at 10 µM,[3],28%
same,inhibition at 10 µM,[4],85%
same,ED50,[5],34 µmol/kg
same,reduction of infarct size,"[6]; IV, one week after the ischemic insult",50%
"CCCCCCC(C)(C)c1cc(O)c2c(c1)OC(C)(C)[C@H]1CC=C(Cn3cccn3)C[C@H]21 [211,220-000, (+)-(3S,4S)-6,6-Dimethyl-(1,1-dimethylheptyl)-1-hydroxy-9-(pyrazolomethyl)-6a,7,10,10a-tetrahydro-6H-dibenzo[b,d]pyran]",NMDA receptor binding / affinity,[1]; MK-801 binding to membranes,relatively high affinity
same,IC50,[1]; [9],0.35 µM
same,IC50,[1]; [10],0.35 µM
same,inhibition at 10 µM,[2],47%
same,inhibition at 10 µM,[3],11%
same,inhibition at 10 µM,[4],11%
same,ED50,[5],57 µmol/kg
same,"pellet consumption, improvement over vehicle","[7]; 0.1 mg/kg, contralateral",20-30%
same,"pellet consumption, improvement relative to vehicle alone","[7]; 0.5 mg/kg, contralateral, p<0.05",> 60%
same,"potency relative to PRS-211,095 and dexanabinol","[7]; 0.5 mg/kg, session 3 of the staircase",at least 10 times
same,"pellet consumption, improvement over vehicle","[7]; 2.5 mg/kg, contralateral",20-30%
same,"pellet consumption, improvement over vehicle","[7]; 5.0 mg/kg, contralateral",20-30%
same,Mortality Rate(%),"[7]; Table 5, 0.1 mg/kg IV",25%
same,No. Dead Animals,"[7]; Table 5, 0.1 mg/kg IV",4
same,Mortality Rate(%),"[7]; Table 5, 0.5 mg/kg IV",18.75%
same,No. Dead Animals,"[7]; Table 5, 0.5 mg/kg IV",3
same,Mortality Rate(%),"[7]; Table 5, 2.5 mg/kg IV",30.7%
same,No. Dead Animals,"[7]; Table 5, 2.5 mg/kg IV",4
same,Mortality Rate(%),"[7]; Table 5, 5 mg/kg IV",14%
same,No. Dead Animals,"[7]; Table 5, 5 mg/kg IV",2
same,body weight gain,[8]; 0.1 mg/kg,3%
same,body weight gain,[8]; 0.5 mg/kg,10%
same,body weight gain,[8]; 2.5 mg/kg,5%
same,body weight gain,[8]; 5 mg/kg,4%
